# In patent publication US20150265691A1 (priority 2006, published 2015):
# How the values were obtained:
# [1] = system: rabbit anti-anthrax spore IgG; type: binding
# [2] = system: rabbit anti-B. anthracis spore polyclonal IgG antibodies; type: binding
Compound,IgG signal detected by glycan arrays (n = 3) Mean [2],also measured
"isomaltopentose [IM5, reference compound]",,inhibition of antibody reactivity with anthrose-tetrasaccharide [1]: no inhibition
"COC(=O)CCCCCO[C@@H]1O[C@@H](C)[C@H](O)[C@@H](O)[C@H]1O [Saccharide 14, 5-(Methoxycarbonyl)pentyl α-L-rhamnopyranoside]",0.97,
Streptococcus pneumoniae type 23 capsular polysaccharide [Saccharide 35],,IgG reactivities (Ratio of Sg./bg.) Mean [2]: 12.35; antibody reactivity detected by glycan arrays [2]: positive spots
"CC(=O)N[C@@H](C=O)[C@@H](O)[C@@H](O)[C@H](O)CO [Saccharide 11, N-acetyl-2-amino-2-deoxy-D-galactose]",1.03,
"CO[C@H]1O[C@H](C)[C@@H](NC(=O)[C@@H](O)CCO)[C@H](O)[C@@H]1O[C@H]1O[C@H](C)[C@@H](NC(=O)[C@@H](O)CCO)[C@H](O)[C@@H]1O[C@H]1O[C@H](C)[C@@H](NC(=O)[C@@H](O)CCO)[C@H](O)[C@@H]1OC [Saccharide 27, Methyl 2-O-methyl-4,6-dideoxy-4-(3-deoxy-L-glycero-tetronamido)-<-D-mannopyranosyl-(1→2)-4,6-dideoxy-4-(3-deoxy-L-glycero-tetronamido)-<-D-mannopyranosyl-(1→2)-4,6-dideoxy-4-(3-deoxy-L-glycero-tetronamido)-<-D-mannopyranoside]",1.01,
"CO[C@H]1O[C@H](CO)[C@H](O)[C@H](O)[C@H]1O[C@@H]1O[C@@H](C)[C@H](O)[C@@H](O[C@@H]2O[C@@H](C)[C@H](O)[C@@H](O[C@H]3O[C@H](CO)[C@@H](O)[C@H](O)[C@H]3NC(C)=O)[C@H]2O)[C@H]1O [Saccharide 22, Methyl 2-acetamido-2-deoxy-<-D-glucopyranosyl-(1→3)-<-L-rhamnopyranosyl-(1→3)-<-L-rhamnopyranosyl-(1→2)-<-D-galactopyranoside, reference compound]",0.95,
"[Methyl 2-O-methyl-4,6-dideoxy-4-(3-deoxy-L-glycero-tetronamido)-<-D-mannopyranosyl-(1→2)-bis[4,6-dideoxy-4-(3-deoxy-L-glycero-tetronamido)-<-D-mannopyranosyl-(1→2)]-4,6-dideoxy-4-(3-deoxy-L-glycero-tetronamido)-<-D-mannopyranoside]10-BSA [Saccharide 32]",1.20,
"CO[C@H]1O[C@H](CO)[C@@H](O)[C@H](O[C@H]2O[C@H](CO)[C@H](O)[C@H](O)[C@H]2O[C@@H]2O[C@@H](C)[C@H](O)[C@@H](O)[C@H]2O)[C@H]1NC(C)=O [Saccharide 23, Methyl <-L-rhamnopyranosyl-(1→2)-<-D-galactopyranosyl-(1→3)-2-acetamido-2-deoxy-<-D-glucopyranoside]",1.01,
"COC(=O)CCCCCO[C@@H]1O[C@@H](C)[C@H](O)[C@@H](O[C@@H]2O[C@@H](C)[C@H](O)[C@@H](O)[C@H]2O)[C@H]1O [Saccharide 16, 5-(Methoxycarbonyl)pentyl α-L-rhamnopyranosyl-(1→3)-α-L-rhamnopyranoside]",1.00,
"CO[C@H]1O[C@H](CO)[C@@H](O)[C@H](O[C@H]2O[C@H](CO)[C@H](O)[C@H](O)[C@H]2O[C@@H]2O[C@@H](C)[C@H](O)[C@@H](O[C@@H]3O[C@@H](C)[C@H](O)[C@@H](O)[C@H]3O)[C@H]2O)[C@H]1NC(C)=O [Saccharide 26, Methyl <-L-rhamnopyranosyl-(1→3)-<-L-rhamnopyranosyl-(1→2)-<-D-galactopyranosyl-(1→3)-2-acetamido-2-deoxy-<-D-glucopyranoside]",1.01,
"O=C[C@@H](O)[C@@H](O)[C@H](O)[C@H](O)CO [Saccharide 10, D-Mannose]",1.03,
"Methyl 2-O-methyl-4,6-dideoxy-4-(3-deoxy-L-glycero-tetronamido)-<-D-mannopyranosyl-(1→2)-tetrakis[4,6-dideoxy-4-(3-deoxy-L-glycero-tetronamido)-<-D-mannopyranosyl-(1→2)]-4,6-dideoxy-4-(3-deoxy-L-glycero-tetronamido)-<-D-mannopyranoside [Saccharide 30]",1.67,
"CO[C@H]1O[C@H](CO)[C@H](O)[C@H](O)[C@H]1O[C@@H]1O[C@@H](C)[C@H](O)[C@@H](O)[C@H]1O [Saccharide 21, Methyl <-L-rhamnopyranosyl-(1→2)-<-D-galactopyranoside, reference compound]",1.08,
"CO[C@H]1O[C@H](C)[C@@H](NC(=O)[C@@H](O)CCO)[C@H](O)[C@@H]1O[C@H]1O[C@H](C)[C@@H](NC(=O)[C@@H](O)CCO)[C@H](O)[C@@H]1O[C@H]1O[C@H](C)[C@@H](NC(=O)[C@@H](O)CCO)[C@H](O)[C@@H]1O[C@H]1O[C@H](C)[C@@H](NC(=O)[C@@H](O)CCO)[C@H](O)[C@@H]1OC [Saccharide 28, Methyl 2-O-methyl-4,6-dideoxy-4-(3-deoxy-L-glycero-tetronamido)-<-D-mannopyranosyl-(1→2)-bis-[4,6-dideoxy-4-(3-deoxy-L-glycero-tetronamido)-<-D-mannopyranosyl-(1→2)]-4,6-dideoxy-4-(3-deoxy-L-glycero-tetronamido)-<-D-mannopyranoside]",1.07,
"COC(=O)CCCCCO[C@H]1O[C@@H](C)[C@H](O)[C@@H](O)[C@H]1O[C@@H]1O[C@@H](C)[C@H](O)[C@@H](O)[C@H]1O [Saccharide 19, 5-(Methoxycarbonyl)pentyl α-L-rhamnopyranosyl-(1→2)-β-L-rhamnopyranoside]",0.98,
"CO[C@@H]1O[C@@H](C)[C@H](O)[C@@H](O[C@@H]2O[C@@H](C)[C@H](O)[C@@H](O)[C@H]2O)[C@H]1O [Saccharide 24, Methyl <-L-rhamnopyranosyl-(1→3)-<-L-rhamnopyranoside, reference compound]",1.02,
"C[C@H](O)[C@H](O)[C@@H](O)[C@@H](O)C=O [Saccharide 6, L-Rhamnose]",1.03,
"O=C[C@H](O)[C@H](O)[C@@H](O)[C@@H](O)CO [Saccharide 13, L-Mannose]",1.06,
"O=C[C@H](O)[C@@H](O)[C@@H](O)[C@H](O)CO [Saccharide 8, D-Galactose]",1.06,
"Methyl 2-O-methyl-4,6-dideoxy-4-(3-deoxy-L-glycero-tetronamido)-<-D-mannopyranosyl-(1→2)-tris[4,6-dideoxy-4-(3-deoxy-L-glycero-tetronamido)-<-D-mannopyranosyl-(1→2)]-4,6-dideoxy-4-(3-deoxy-L-glycero-tetronamido)-<-D-mannopyranoside [Saccharide 29]",1.09,
"COC(=O)CCCCCO[C@@H]1O[C@@H](C)[C@H](O)[C@@H](O)[C@H]1O[C@@H]1O[C@@H](C)[C@H](O)[C@@H](O)[C@H]1O [Saccharide 18, 5-(Methoxycarbonyl)pentyl α-L-rhamnopyranosyl-(1→2)-α-L-rhamnopyranoside]",1.26,
"C[C@@H](O)[C@H](O)[C@H](O)[C@@H](O)C=O [Saccharide 7, D-Fucose]",1.88,
"COC(=O)CCCCCO[C@H]1O[C@@H](C)[C@H](O)[C@@H](O)[C@H]1O [Saccharide 15, 5-(Methoxycarbonyl)pentyl β-L-rhamnopyranoside]",0.95,
"O=C[C@H](O)[C@@H](O)[C@@H](O)CO [Saccharide 12, L-Arabinose]",1.03,
"COC(=O)CCCCCO[C@H]1O[C@@H](C)[C@H](O)[C@@H](O)[C@H]1O[C@@H]1O[C@@H](C)[C@H](O)[C@@H](O[C@@H]2O[C@@H](C)[C@H](O)[C@@H](O)[C@H]2O)[C@H]1O [Saccharide 20, 5-(Methoxycarbonyl)pentyl α-L-rhamnopyranosyl-(1→3)-α-L-rhamnopyranosyl-(1→2)-β-L-rhamnopyranoside]",0.95,
"O=C[C@H](O)[C@@H](O)[C@H](O)[C@H](O)CO [Saccharide 9, D-Glucose]",1.04,
"CO[C@H]1O[C@H](CO)[C@H](O)[C@H](O)[C@H]1O[C@@H]1O[C@@H](C)[C@H](O)[C@@H](O[C@@H]2O[C@@H](C)[C@H](O)[C@@H](O)[C@H]2O)[C@H]1O [Saccharide 25, Methyl <-L-rhamnopyranosyl-(1→3)-<-L-rhamnopyranosyl-(1→2)-<-D-galactopyranoside, reference compound]",1.02,
"[Methyl 2-O-methyl-4,6-dideoxy-4-(3-deoxy-L-glycero-tetronamido)-<-D-mannopyranosyl-(1→2)-tris[4,6-dideoxy-4-(3-deoxy-L-glycero-tetronamido)-<-D-mannopyranosyl-(1→2)]-4,6-dideoxy-4-(3-deoxy-L-glycero-tetronamido)-<-D-mannopyranoside]10-BSA [Saccharide 33]",1.37,
Nigerose [reference compound],,inhibition of antibody reactivity with anthrose-tetrasaccharide [1]: no inhibition
"[Methyl 2-O-methyl-4,6-dideoxy-4-(3-deoxy-L-glycero-tetronamido)-<-D-mannopyranosyl-(1→2)-4,6-dideoxy-4-(3-deoxy-L-glycero-tetronamido)-<-D-mannopyranosyl-(1→2)-4,6-dideoxy-4-(3-deoxy-L-glycero-tetronamido)-<-D-mannopyranoside]5-BSA [Saccharide 31]",1.53,
